What was measured:
[1] = Total inorganic carbon (TIC) analysis, simulated system with KHCO3
Description: (§1) Total inorganic carbon analysis: To quantify the amount of total inorganic carbon converted to CO2, the quantities of bicarbonate in the solution before and after the irradiation were determined using a total inorganic carbon analyzer consisting of an acidification module and a coulometric detection. […] Air was used as carrier gas (100 mL/min) in all experiments. 1 mM KHCO3 solution was tested similarly as the reference sample. Calculations were based on sample volume and 1 M Na2CO3 was used as the standard solution.

[2] = Total inorganic carbon (TIC) analysis, CO2-loaded glycine system; conditions: for reduction in the inorganic carbon content: vs CO2-loaded glycine solution
Description: See F. M. Brethome et al., Nat. Energy 2018, 3, 553-559 and R. Custelcean et al., Ind. Eng. Chem. Res. 2019, 58, 23338-23346.
as §1

[3] = pH measurements of mPAH 1 solutions under 355 nm lamp irradiation; format: physicochemical
Text: Light sources: The light source, referred as the 355 nm lamp thereafter, is a portion of the output of an Oriel 200 W mercury-xenon lamp, which was selected using a 2″ round Oriel broadband filter centered at 355 nm with a full width at half maximum of ˜150 nm and highest transmission of ˜90% (Filters 51664 and 59814). The photon fluxes at the sample position was ˜500 μmol·m^−2·s^−1, which measured using a handheld meter.
pH measurements and absorption spectra measurements: Typically for all experiments using the 355 nm lamp, 6 mL of solution mixtures were placed in a glass vial of diameter ˜2 cm and pH variations of the solutions upon light exposure were monitored continuously using a pH meter. Solutions were exposed to air and continuously stirred during pH measurements and sealed and kept in the dark without stirring for the mPAH 1 reverse reaction. Calculated amount of bicarbonate was replaced prior to second and third cycles. All absorption spectra during a given reaction event were acquired using a UV-vis spectrometer by taking a small amount (˜200 μL) of solution. Co-existence of different mPAH 1 conformers were verified using 1H NMR spectroscopy and theoretical calculations.

[4] = Solubility in water; format: physicochemical
[5] = Head space CO2 release measurement (infrared sensor, 470 nm LED); conditions: mPAH 2/morpholine
Text: This step is important to reproducibly measure the CO2 release as described below. […] After the reading of CO2 was steady, irradiation was applied from outside of the glass chamber using a 470 nm LED with moderate power (˜ 13 mW/cm^2). The CO2 released to the chamber was monitored using a head space method, as also used in previous studies. The concentration of CO2 gas in the chamber was monitored by the sensor and compared to that of a standard. Not only does this method directly measure the CO2 gas released, but also it is suitable for studying relatively small samples with good sensitivity. […] Addition of a strong acid leads to complete decomposition of the bicarbonate and CO2 release. […] It also reacts with CO2 via an acid-base reaction to form bicarbonate salt.

solubility in water [4] | Compound | total inorganic carbon in the solution converted to CO2 ([1]; 1 mM mPAH 1 + 1 mM KHCO3 (simulated system), upon irradiation) [%] | total bicarbonate converted to CO2 ([1]; 2 mM mPAH 1 pre-irradiated 30 min, mixed with equal volume 2 mM KHCO3, reaction without irradiation) [%] | total bicarbonate converted to CO2 ([1]; 2 mM mPAH 1 pre-irradiated, mixed with equal volume 2 mM KHCO3, continuous irradiation) [%] | reduction in the inorganic carbon content ([2]; 1 mM mixture of CO2-loaded glycine and mPAH 1, upon irradiation) | reduction in the inorganic carbon content ([2]; 20 mM mixture of CO2-loaded glycine and mPAH 1, upon irradiation) [%] | efficiency of conversion of total inorganic carbon to CO2 ([2]; amino acid (AA)-based DAC systems, with respect to initial concentrations) | rate of pH increase owing to CO2 release ([3]; 1 mM mPAH 1 + 1 mM KHCO3, second cycle of irradiation) [pH units/hour] | rate of pH increase owing to CO2 release ([3]; 1 mM mPAH 1 + 1 mM KHCO3, third cycle of irradiation) [pH units/hour] | pH increment ([3]; 1 mM mPAH 1 + 1 mM KHCO3, third cycle performed only 4 hours after the second cycle) [pH units/hour] | time for full reverse reaction to the initial trans isomer ([3]; mPAH 1 itself, in the dark) [h] | time after start of irradiation at which head space [CO2] rose [5] [min]
 | O=S(=O)([O-])CCC[n+]1c(/C=C/c2cc(S(=O)(=O)[O-])cc3cn[nH]c23)sc2ccccc21.[Na+] [mPAH 1] | 55 | ~3 | ~50 | approximately 68% | ~78 | 68%-78% | 0.35 | 0.11 | 0.31 | 4 to 6 | 
about 30 mM | COC(=O)c1ccc2sc(/C=C/c3cc(S(=O)(=O)[O-])cc4cn[nH]c34)[n+](CCCS(=O)(=O)O)c2c1 [mPAH 2] |  |  |  |  |  |  |  |  |  |  | ~5
